Test results reported in PubChem BioAssay AID179 (DTP/NCI, 2004).
The source made the active and inactive calls.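 The calls were made as follows: active = compounds giving half or more protection of infected cells from virus-caused growth loss, again on retest; inactive = the rest.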 Where a SMILES comes first, the peptide text is derived from it. The star is where a group is joined. Boc = CC(C)(C)OC(=O)*; OBn = c1ccc(CO*)cc1; Bn = c1ccc(C*)cc1

Test system: CEM cells HIV-1 protection, formazan growth assay
Assay: NCI AIDS Antiviral Assay
Details: for IC50: measured here: growth of uninfected CEM cells
In short: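 Protection of CEM cells against HIV-1 was scored from cell growth (soluble formazan) across five concentrations, with parallel uninfected cells. Lack of protection may reflect toxicity.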

CC(=O)NC1=NC(=O)/C(=C\c2cccc(Cl)c2Cl)N1C was tested, and the EC50 was over 200 µM and the IC50 was 81.3 µM.
Molecule O=C(CC(=O)Nc1ccccc1O)Nc1ccccc1O has an EC50 of over 447 µM and an IC50 of 22.4 µM.
With Cc1c(C(=O)C/C(=N/NC(=O)C[n+]2ccccc2)C(=O)Nc2ccccc2)[n+](=O)c2ccccc2n1O the EC50 was over 17.8 µM and the IC50 was over 17.8 µM.
O=C1c2ccccc2C(=O)N1C/C=N/NS(=O)(=O)c1ccc(Cl)cc1 showed an EC50 of over 95.5 µM and an IC50 of over 95.5 µM.
Work on CCC1(CC)C(=O)NN(C(=O)c2ccccc2)C1=O yielded an EC50 of over 200 µM and an IC50 of over 200 µM.
O=C1C2=C(SCCS2)C(=O)c2ccccc21 was tested, and the EC50 was over 42.7 µM and the IC50 was 0.676 µM.
Work on CCOC(=O)C(NC(=O)CC)(Nc1ccccc1F)C(F)(F)F (configuration not stated) yielded an EC50 of over 200 µM and an IC50 of over 200 µM.
CC(C)CC(NC(=O)C(Cc1ccccc1)NC(=O)C(COCc1ccccc1)NC(=O)OC(C)(C)C)C(=O)OCc1ccccc1 (stereo not drawn) (Boc-Ser(Bn)-Phe-Leu-OBn; configuration not given here) gave an EC50 of over 200 µM and an IC50 of 13.2 µM.
N#CC(C(=O)/C(=N/NC(=O)c1ccccc1O)C(C#N)c1ccc(Cl)cc1)c1ccc(Cl)cc1 (configuration not stated) gave an EC50 of over 40.7 µM and an IC50 of 22.4 µM.
With CC(=O)C1=CCC2c3[nH]c4ccccc4c3CCN2C1 (configuration not stated) the EC50 was over 70.8 µM and the IC50 was over 70.8 µM.
With Cn1cnc([N+](=O)[O-])c1Sc1nnc(-c2cccnc2)n1C the EC50 was over 794 µM and the IC50 was 6.61 µM.
CCOC(=O)c1cn(C)c2c1C(O)=C(C(=O)OC)CC(=O)N2 showed an EC50 of over 234 µM and an IC50 of 178 µM.
c1nc2nc3c(cn2n1)CCCCC3 showed an EC50 of over 200 µM and an IC50 of over 200 µM.
For CC1(C)CC(=O)c2c(nc3ccc4ccccc4c3c2-c2ccc(NC(=O)CCC(=O)Nc3ccc(-c4c5c(nc6ccc7ccccc7c46)CC(C)(C)CC5=O)cc3)cc2)C1, the EC50 was over 100 µM and the IC50 was over 100 µM.
In the case of CCOc1ccc2nc(NC(=O)C(=O)C(C#N)CC(C)(C)C=O)sc2c1 (configuration not stated), the EC50 is reported as over 479 µM and the IC50 is reported as 263 µM.
COc1cc(C2c3cc4c(cc3OC(NNc3ccccc3)C2C)OCO4)cc(OC)c1O (configuration not stated) was tested, and the outcome was “inactive”.
For CC(=O)Oc1cc2c(n(C)c1=O)-c1ccccc1C2, the EC50 was over 200 µM and the IC50 was 6.61 µM.
C(=C\c1ccc(-c2cn3cc(/C=C/C=N/NC4=NCCN4)ccc3n2)cc1)/C=N/NC1=NCCN1 was tested, and the outcome was “inactive”.
Molecule OCC1CC(F)C(n2cnc3c(NO)ncnc32)O1 (configuration not stated) has an EC50 of over 151 µM and an IC50 of over 151 µM.
CCCC1=NNc2n[nH]c(=S)n2N1 showed an EC50 of over 132 µM and an IC50 of 58.9 µM.
For O=c1cc(-c2ccc(O)cc2)oc2cc(O)cc(O)c12, the EC50 was over 55 µM and the IC50 was 20.4 µM.
Cc1nc2ccc(S(=O)(=O)Nc3nccs3)cc2c(=O)n1NS(=O)(=O)c1nccs1 gave an EC50 of over 200 µM and an IC50 of 49 µM.
For CC1=C(C(=O)Nc2ccc([N+](=O)[O-])cc2)C(c2ccco2)C(C(=O)Nc2ccc([N+](=O)[O-])cc2)=C(C)N1, the EC50 was over 19.5 µM and the IC50 was 11 µM.
With Cc1ccccc1S(=O)(=O)Nn1cnc2ccc(S(=O)(=O)Nc3ccc(Cl)cc3)cc2c1=O the outcome was “inactive”.
In the case of O=C1CC(=O)NC(=NN2C(=O)/C(=C/c3ccc(Cl)cc3)N=C2c2ccccc2)N1, the EC50 is reported as over 200 µM and the IC50 is reported as 32.4 µM.
In the case of Nc1nc(Cl)cc(OCC2(CO)CC(OCc3ccccc3)C2)n1 (configuration not stated), the EC50 is reported as over 200 µM and the IC50 is reported as 41.7 µM.
For C[Si](C)(C)O/C=C1\CCCCC1=O, the EC50 was over 200 µM and the IC50 was over 200 µM.
Clc1c2ncccc2cc2n[nH]nc12 was tested, and the EC50 was over 200 µM and the IC50 was over 100 µM.
For O=c1cc(-c2ccccc2)oc2cc(O)cc(O)c12, the EC50 was over 87.1 µM and the IC50 was 38 µM.
O=c1cc(O)c2ccccc2o1 showed an EC50 of over 1550 µM and an IC50 of 617 µM.
With CCOc1ccc(NC(=O)C2=C(C)NC(C)=C(C(=O)Nc3ccc(OCC)cc3)C2c2ccccc2)cc1 the EC50 was over 36.3 µM and the IC50 was over 36.3 µM.
CCOC(=O)CSc1nc(-c2ccc(Cl)cc2)c(C#N)c(=O)[nH]1 was tested, and the EC50 was over 200 µM and the IC50 was 93.3 µM.
Work on COc1ccc(Cl)cc1C(=O)c1cc(Cl)cc(S(=O)(=O)O)c1OC yielded an EC50 of over 617 µM and an IC50 of 427 µM.
For CCSc1nc(N)c2c(-c3ccc(OC)c(OC)c3)c3c(nc2n1)CCCC3, the EC50 was over 200 µM and the IC50 was over 200 µM.
COc1cc2cc(OC(C)=O)c3cc4c(cc3c2c(OC)c1OC)OCO4 gave an EC50 of over 676 µM and an IC50 of over 676 µM.
CN1OC(CO)CC12C1CC3CC(C1)CC2C3 (configuration not stated) gave an EC50 of over 1050 µM and an IC50 of 537 µM.
With N#CC1(C#N)C(C#N)(C#N)C12CCCCCC2 the outcome was “inactive”.
O=S(=O)(O)C(O)CC=C(C(O)S(=O)(=O)O)C(O)S(=O)(=O)O (configuration not stated) was tested, and the EC50 was over 200 µM and the IC50 was 81.3 µM.
Molecule N#CN1CCC=C(c2cc3ccccc3[nH]2)C1 has an EC50 of over 115 µM and an IC50 of 60.3 µM.
O=c1[nH]cnc2cc3c(cc12)nc1n3CCOC1 was tested, and the EC50 was over 52.5 µM and the IC50 was over 52.5 µM.
CC(=O)OC1CCn2c1nc1cc([N+](=O)[O-])c(C)cc12 (configuration not stated) was tested, and the EC50 was over 200 µM and the IC50 was over 200 µM.
Molecule O=C(O)Cc1ccccc1 has an EC50 of over 200 µM and an IC50 of over 200 µM.
O=C1N[C@@H]([C@H](CCCCCO)OC(=O)c2ccccc2)CO1 showed an EC50 of over 200 µM and an IC50 of over 200 µM.
